This passage reports Kd results from patent US20260193170A1 (University of Copenhagen, priority 2022, published 2026).

This test has as its target T1, human Keap1 Kelch (Homo sapiens, UniProt Q14145).
T1 construct: human Keap1 Kelch domain (residue 321-609, UniProt Q14145); made in house; host or cells: Escherichia coli BL21 (DE3) pLysS, pRSET A vector
As to the kind of experiment: Surface plasmon resonance (SPR), immobilized Keap1 Kelch domain. It is filed as binding. The note with it: 25 °C, Rmax constrained to 15 RU (theoretical max). The text has this:
768 fragments from the commercial available (Enamine) DSI-poised library were screened against the human Keap1 Kelch domain using X-ray crystallography. After data collection and processing (example 3), several crystal structures with high-resolution (1.0-2.1 Å) were identified showing fragments bound to the Keap1 binding pocket. […] To confirm XCF #0252 as a hit and determine its affinity to human Keap1 Kelch, this fragment was resynthesized (Scheme 1) and tested by surface plasmon resonance (SPR). In SPR, a dose-dependent activity was observed and an affinity of Kd=0.6 mM was measured (FIG. 2B).
SPR measurements were performed at 25° C. using a Pioneer FE FE instrument (Sartorius). The Keap1 Kelch domain was covalently immobilized on the biosensor chip surface by amine coupling to a level of 2150 RU, using a 10 mM NaOAc pH 5 immobilization buffer. The 1×HBSTET buffer supplemented with 4% DMSO was used as running buffer for the experiments. Microcalibration was performed for all SPR experiments to adjust for DMSO bulk effects (low limit of 3% and a high limit of 4%). The compound was injected in a concentration series of twofold serial dilutions ([…]-1000 μM) using standard injections at a 30 μL/min flow rate. The data were analyzed using Qdat Data Analysis Tool version 2.6.3.0 (Sartorius). […]
For orientation: In SPR one partner is held on a chip, and binding of the other changes the refractive index at the surface.

T1 sequence (Q14145 321-609): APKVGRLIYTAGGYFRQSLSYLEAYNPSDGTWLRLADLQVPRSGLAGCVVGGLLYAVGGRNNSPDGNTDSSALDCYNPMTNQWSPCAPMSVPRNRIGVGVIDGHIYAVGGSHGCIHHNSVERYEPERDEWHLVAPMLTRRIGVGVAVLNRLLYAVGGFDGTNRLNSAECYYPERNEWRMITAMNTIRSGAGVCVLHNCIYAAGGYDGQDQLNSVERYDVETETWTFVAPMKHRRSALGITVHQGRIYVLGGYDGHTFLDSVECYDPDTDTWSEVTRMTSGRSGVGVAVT

The compound `O=C(COc1ccccc1)NC1CCCCC1` [XCF #0252, N-Cyclohexyl-2-phenoxyacetamide] yielded a Kd of 600 µM.

A word on the Kd: it is a measure of binding affinity in units of concentration. A higher Kd goes with weaker binding.
